Experiments:
Format in all cases: in vivo
[1] = test system: Vespula germanica; test: Field trap catch of yellow jacket wasps with attractant
Description: (§1) On the top inside of the bottle, 2 cm below the cap 17, a 10 ml 'micro' glass vial 19 was installed. In this small container, 0.1 ml of an attractive compound 20 was deposited. In the bottom of the 500 ml bottle, 200 ml of water with liquid household detergent 22 was placed. The traps 10 or containers with the attractant 20, were placed randomly in different species of trees, mostly 'thorns,' Acacia […] Tebo, […] Lo Orozco, and apple trees in Casablanca (Chile), each hung from a wire 24, at a height of about 11⁄2 m from the ground, with a separation between them of about 10 m. […] The traps 10 were placed in Catapilco in the […] farm the 19th of February 2007, in the geographical locations of 33° 37' 06'' S. and 71° 19' 14'' O, for the Campo Lindo farm in Casablanca in 33° 14' 23'' S. and 71° 17' 37'' O on the 20th of February 2007 and Lo Orozco in 33° 13'26'' S. and 71° 24' 04'' O the 9th of April 2007. […] In the extent it was necessary the containers were filled up with water and detergent.

[2] = test system: Other insects; test: Field trap catch of other insects (selectivity)
Description: as §1

[3] = test system: Polistes; test: Field trap catch of Polistes (selectivity); details: Lo Orozco; 21 days; five containers per attractant
Description: (§2) On the top inside of the bottle, 2 cm below the cap 17, a 10 ml 'micro' glass vial 19 was installed. In this small container, 0.1 ml of an attractive compound 20 was deposited. In the bottom of the 500 ml bottle, 200 ml of water with liquid household detergent 22 was placed. The traps 10 or containers with the attractant 20, were placed randomly in different species of trees, mostly 'thorns,' Acacia […] Tebo, […] Lo Orozco, and apple trees in Casablanca (Chile), each hung from a wire 24, at a height of about 11⁄2 m from the ground, with a separation between them of about 10 m. Two replications were used per each attractant in Catapilco, and five replications in Lo Orozco and Casablanca. The traps 10 were placed in Catapilco in the […] farm the 19th of February 2007, in the geographical locations of 33° 37' 06'' S. and 71° 19' 14'' O, for the Campo Lindo farm in Casablanca in 33° 14' 23'' S. and 71° 17' 37'' O on the 20th of February 2007 and Lo Orozco in 33° 13'26'' S. and 71° 24' 04'' O the 9th of April 2007. […] In the extent it was necessary the containers were filled up with water and detergent.

[4] = test system: Bees; test: Field trap catch of bees (selectivity); details: Lo Orozco; 21 days; five containers per attractant
Description: as §2

[5] = Campo Lindo farm, Casablanca, 18 days, two containers per attractant, 0.1 ml
[6] = Manantiales farm, Catapilco, 17 days, two containers per attractant, 0.1 ml
[7] = Lo Orozco, 21 days, five containers per attractant

SMILES | Total number of V. germanica workers captured [1, 5] | Total number of V. germanica workers captured [1, 6] | Total number of other insects captured [2, 5] | Total number of other insects captured [2, 6] | Attraction compared with the standard mixture of acetic acid with isobutanol ([1]; Lo Orozco field tests) | Total number of V. germanica workers captured [1, 7] | Total number of other insects captured [2, 7] | Total number of Polistes captured [3] | Total number of Bees captured [4]
CCCCCCCCCCCCO [1-Dodecanol] | 102 | 0 | 1 Sirfid | 0 | – | – | – | – | –
CCCCCC(C)=O [2-Heptanone] | 92 | 69 | 0 | 0 | – | – | – | – | –
CCCCCCCC(C)=O [2-Nonanone] | 178 | 0 | 0 | 0 | – | – | – | – | –
CCCCCCC(C)=O [2-Octanone] | 209 | 416 | 1 Moth | 0 | superior | 2.673 | 0 | 1 | 0
CCCCCC(=O)CC [3-Octanone] | 218 | 356 | 0 | – | – | 892 | 0 | 0 | 0
CCCCCCC=O [Heptaldehyde] | 129 | 9 | 0 | 0 | – | – | – | – | –
CCCCCCCCC=O [Nonyl aldehyde] | 97 | 1 | 0 | 3 Bees | – | – | – | – | –
CCCCCCCC=O [Octyl aldehyde] | 101 | 3 | 0 | 0 | – | – | – | – | –
CCCCC/C=C/C=C/C=O [Trans,trans-2,4-decadienal] | 5 | 84 | 0 | 0 | – | – | – | – | –
CCCC/C=C/C=C/C=O [Trans,trans-2,4-nonadienal] | 218 | 0 | 0 | 0 | – | – | – | – | –
CCCC/C=C/C=O [Trans-2-heptenal] | 252 | 407 | 0 | 0 | – | 999 | 0 | 0 | 0
CCCCC/C=C/CO [Trans-2-octen-1-ol] | 297 | 474 | 0 | 1 Bee | – | – | 0 | 1 | 2
CCCCC=O [Valeraldehyde] | 84 | 24 | 0 | 0 | – | – | – | – | –
